Measured values as given in ChEMBL document CHEMBL1158467, “In vitro intrinsic clearance-based optimization of N3-phenylpyrazinones as corticotropin-releasing factor-1 (CRF1) receptor antagonists” (J Med Chem, 2009).

Tests used:
[1] = Intrinsic clearance in human liver microsomes at 1 uM; assay type: ADME, Microsome
[2] = target: T1, Corticotropin-releasing factor receptor 1 (Rattus norvegicus, UniProt P35353); assay: Displacement of [125I]ovine-CRF from CRF1 receptor in rat frontal cortex by rapid filtration technique; assay type: tissue-based
T1 sequence (P35353 whole entry): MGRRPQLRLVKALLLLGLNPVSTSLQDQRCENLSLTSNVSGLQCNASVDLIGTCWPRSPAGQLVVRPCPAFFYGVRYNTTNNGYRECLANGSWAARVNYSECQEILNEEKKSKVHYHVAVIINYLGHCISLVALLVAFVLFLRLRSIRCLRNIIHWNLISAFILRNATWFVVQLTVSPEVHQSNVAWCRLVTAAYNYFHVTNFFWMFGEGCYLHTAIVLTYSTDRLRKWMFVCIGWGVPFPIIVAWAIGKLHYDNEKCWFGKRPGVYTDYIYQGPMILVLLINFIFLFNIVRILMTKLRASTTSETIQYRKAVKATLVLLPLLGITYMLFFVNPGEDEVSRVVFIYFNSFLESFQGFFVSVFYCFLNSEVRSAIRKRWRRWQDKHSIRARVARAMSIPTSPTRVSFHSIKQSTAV

Structure (SMILES) | CLint scaled at 1 µM [1] [mL/min/kg] | IC50 [2] [nM]
C[C@H](C1CC1)n1cc(Cl)nc(Nc2c(Cl)cc(OC(F)F)cc2Cl)c1=O | 22 | 0.46
Cc1cc(C)c(Nc2nc(Cl)cn([C@H](C)C3CC3)c2=O)c(C)c1 | 180 | 
Cc1cc(Cl)cc(Cl)c1Nc1nc(Cl)cn([C@H](C)C2CC2)c1=O | 44 | 1.2
COC[C@@H](C)n1cc(Cl)nc(Nc2c(Cl)cc(C#N)cc2Cl)c1=O | 35 | 18
C[C@H](C1CC1)n1cc(Cl)nc(Nc2c(Cl)cc(Cl)cc2Cl)c1=O |  | 0.91
CC[C@H](C1CC1)n1cc(Cl)nc(Nc2c(Cl)cc(OC)cc2Cl)c1=O | 400 | 0.44
COc1cc(C)c(Nc2nc(Cl)cn([C@H](C)C3CC3)c2=O)cc1OC | 100 | 15
CC[C@H](C1CC1)n1cc(Cl)nc(Nc2c(Cl)cc(OC(F)(F)F)cc2Cl)c1=O | 77 | 1.8
CCOc1cc(C)c(Nc2nc(Cl)cn([C@H](C)C3CC3)c2=O)cc1C | 32 | 1.2
COc1cc(Cl)c(C)cc1Nc1nc(Cl)cn([C@H](C)C2CC2)c1=O |  | 36
CC[C@H](COC)n1cc(Cl)nc(Nc2c(Cl)cc(C(F)(F)F)cc2Cl)c1=O | 150 | 2.3
COCC(COC)n1cc(Cl)nc(Nc2c(Cl)cc(C(F)(F)F)cc2Cl)c1=O | 53 | 8.5
COc1cc(Cl)c(Nc2nc(Cl)cn([C@H](C)C3CC3)c2=O)cc1F | 180 | 8.2
C[C@H](C1CC1)n1cc(Cl)nc(Nc2c(Cl)cc(OC(F)(F)F)cc2Cl)c1=O | 30 | 6.5
Cc1cc(Cl)c(Nc2nc(Cl)cn([C@H](C)C3CC3)c2=O)cc1C#N | 160 | 19
COC[C@@H](C)n1cc(Cl)nc(Nc2c(Cl)cc(C(F)(F)F)cc2Cl)c1=O | 32 | 11

Structure (SMILES) | CLint scaled at 1 µM [1] [mL/min/kg] | IC50 [2] [nM]
CC[C@H](C1CC1)n1cc(Cl)nc(Nc2c(Cl)cc(C(F)(F)F)cc2Cl)c1=O | 89 | 1.3
C[C@H](C1CC1)n1cc(Cl)nc(Nc2cc3c(cc2Cl)OCC3)c1=O |  | 120
COc1cc(C)c(Nc2nc(Cl)cn([C@H](C)C3CC3)c2=O)cc1C | 61 | 
C[C@H](C1CC1)n1cc(Cl)nc(Nc2c(Cl)cc(Cl)cc2C#N)c1=O |  | 18
C[C@H](C1CC1)n1cc(Cl)nc(Nc2c(Cl)cc(S(C)(=O)=O)cc2Cl)c1=O |  | 63
C[C@@H](C1CC1)n1cc(Cl)nc(Nc2c(Cl)cc(C(F)(F)F)cc2Cl)c1=O |  | 7.9
CC[C@H](COC)n1cc(Cl)nc(Nc2c(Cl)cc(C#N)cc2Cl)c1=O | 210 | 1.7
COC[C@@H](C1CC1)n1cc(Cl)nc(Nc2c(Cl)cc(C(F)(F)F)cc2Cl)c1=O | 64 | 1.6
CC[C@H](C1CC1)n1cc(Cl)nc(Nc2c(C)cc(Cl)cc2Cl)c1=O | 210 | 
CC[C@H](C1CC1)n1cc(Cl)nc(Nc2c(Cl)cc(C#N)cc2Cl)c1=O | 160 | 
CCCC(CCC)n1cc(Cl)nc(Nc2c(Cl)cc(C(F)(F)F)cc2Cl)c1=O | 110 | 3.7
Cc1cc(C)c(Nc2nc(Cl)cn([C@H](C)C3CC3)c2=O)c(Cl)c1 | 140 | 0.98
Cc1cc(C)c(Nc2nc(Cl)cn([C@H](C)C3CC3)c2=O)cc1C |  | 4.8
CC[C@H](C1CC1)n1cc(Cl)nc(Nc2c(C)cc(C)cc2C)c1=O | 340 | 
COc1cc(Cl)c(Nc2nc(Cl)cn([C@H](C)C3CC3)c2=O)c(Cl)c1 | 130 | 
